Inhibition, ED50 and inhibition in vivo data for 17 compounds are collected here from ChEMBL document CHEMBL1123376, “3-(1H-tetrazol-5-yl)-4(3H)-quinazolinone sodium salt (MDL 427): a new antiallergic agent” (1986).

Common to all, as to type: functional
Experiment [1] has as its system Rattus norvegicus. The experiment in a line: Evaluated in rat PCA (passive cutaneous anaphylaxis) test administered at 60 mg/kg ip and the inhibition of PCA due to inhibition of IgE mediated release was determined. As to conditions: route intraperitoneal; for inhibition in vivo at 60 mg/kg: Rattus norvegicus, ip.
For experiment [2], the system named is Rattus norvegicus. Nature of the experiment: Compound was evaluated in rat PCA(passive cutaneous anaphylaxis) test administered intravenously. As to conditions: iv.
The subject of experiment [3] is Rattus norvegicus. Nature of the experiment: Compound was evaluated in rat PCA (passive cutaneous anaphylaxis) test administered at 100 mg/kg orally and the inhibition of PCA due to inhibition of IgE mediated release was determined. Conditions: for inhibition in vivo at 100 mg/kg: Rattus norvegicus, po.
In experiment [4] the test system is Rattus norvegicus. The experiment in a line: Compound was evaluated in rat PCA (passive cutaneous anaphylaxis) test administered intravenously. Conditions: iv.

For orientation: Inhibition means how much of the control response was suppressed. A low value points to a response near the control. For orientation: ED50 means the dose that gives a 50% effect, or the effect in half of the subjects. A higher ED50 goes with weaker potency. Consider `O.O=c1c2ccccc2ncn1-c1nnn[n-]1.[Na+]`, for which the Inhibition in the experiment on Rattus norvegicus [1] is 93%; in the experiment on Rattus norvegicus [3] (route oral), 97%. Further, in the experiment with Rattus norvegicus [2], the 50% effect level (ED50) was put at a dose of 0.2 mg/kg.

A word on the inhibition in vivo: it is the relative decrease from the control value, in per cent. A low value points to little suppression. For `O=c1c2ccccc2ncn1-c1nnn[nH]1`, at 60 mg/kg the inhibition in vivo in the experiment on Rattus norvegicus [1] was 100%. This compound also displayed an inhibition in vivo at 100 mg/kg in the experiment with Rattus norvegicus [3] of 89%.

In the experiment with Rattus norvegicus [1], `O=c1c2cc3c(cc2ncn1-c1nn[nH]n1)OCO3` returned an inhibition in vivo at 60 mg/kg of 90%.

As to `O=c1c2ccccc2ncn1-n1cnnc1`, in the experiment with Rattus norvegicus [1], at 60 mg/kg the inhibition in vivo was 0%.

Take `O=c1c2ccccc2ncn1-c1cc[nH]n1`: in the experiment on Rattus norvegicus [1], testing at 60 mg/kg gave an inhibition in vivo of 5%.

`O=CNc1ccccc1C(=O)Nc1nn[nH]n1` showed an inhibition in vivo at 60 mg/kg with Rattus norvegicus [1] of 89%. In the experiment with Rattus norvegicus [3], this compound yielded an inhibition in vivo at 100 mg/kg of 91%.

In the case of `Cc1cccc2c(=O)n(-c3nn[nH]n3)cnc12`, the inhibition in vivo at 60 mg/kg in the experiment on Rattus norvegicus [1] came to 64%.

`Cc1nc2ccccc2c(=O)n1-c1nn[nH]n1` displayed an inhibition in vivo at 60 mg/kg in the experiment on Rattus norvegicus [1] of 22%.

In turn, `COc1cccc2c(=O)n(-c3nn[nH]n3)cnc12` came in with an inhibition in vivo at 60 mg/kg with Rattus norvegicus [1] of 44%.

On to `O=c1c2ccccc2ncn1-c1nc[nH]n1`, for which the inhibition in vivo at 60 mg/kg in the experiment with Rattus norvegicus [1] is 75%.

In the experiment with Rattus norvegicus [1], `O=c1c2cc(Cl)ccc2ncn1-c1nn[nH]n1` had an inhibition in vivo at 60 mg/kg of 89%.

`CCc1nc2ccccc2c(=O)n1-c1nn[nH]n1` showed an inhibition in vivo at 60 mg/kg in the experiment with Rattus norvegicus [1] of 41%.

The compound `O=c1c2ccccc2nc(-c2ccccc2)n1-c1nn[nH]n1` came in with an inhibition in vivo at 60 mg/kg in the experiment with Rattus norvegicus [1] of 27%.

In the experiment with Rattus norvegicus [1], `Nc1ccccc1C(=O)Nc1nn[nH]n1` showed an inhibition in vivo at 60 mg/kg of 59%. The same compound came in with an ED50 in the experiment with Rattus norvegicus [4] of 10.5 mg/kg. This compound also had an inhibition in vivo at 100 mg/kg in the experiment with Rattus norvegicus [3] of 7%.

Compound `Cc1cccc2ncn(-c3nn[nH]n3)c(=O)c12` came in with an inhibition in vivo at 60 mg/kg in the experiment with Rattus norvegicus [1] of 80%.

Take `Cc1ccc2ncn(-c3nn[nH]n3)c(=O)c2c1`: testing at 60 mg/kg in the experiment on Rattus norvegicus [1] gave an inhibition in vivo of 100%.

As for `O=C([O-])c1cc(=O)c2c(OCC(O)COc3cccc4oc(C(=O)[O-])cc(=O)c34)cccc2o1.[Na+].[Na+]` [CROMOLYN SODIUM], in the experiment on Rattus norvegicus [1], the inhibition in vivo at 60 mg/kg was 100%. In the experiment with Rattus norvegicus [4], this compound had an ED50 of 0.7 mg/kg. In addition, at 100 mg/kg the inhibition in vivo with Rattus norvegicus [3] was 0%.
